Test system: naturally occurring non-Hodgkin's lymphoma
Test: Efficacy in a dog with naturally occurring non-Hodgkin's lymphoma (RECIST)
Assay type: in vivo
Parameters: key to Lymphnode R PSLN size / Lymphnode L PopLN size / Lymphnode L SMLN size / Lymphnode R SMLN size / Lymphnode L PSLN size: WNL refers to when a lymph node is decreased to a size considered within normal ranges for that node
Conditions: for % change of sum of lymphnodes: vs baseline sum; for Sum of lymphnodes: Day 0 pre treatment sum 16.9
Experimental: Compound (21) was evaluated for efficacy in a dog with naturally occurring non-Hodgkin's lymphoma (NHL). Canine NHL has proven to be a relevant model for preclinical evaluation of new therapeutics, both for initial induction and rescue of drug-resistant relapse (Reference Vail D M, Thamm D H. Spontaneously occurring tumors in companion animals as models for drug development. In: Teisher B A, ed. Anticancer Drug Development Guide. 2nd ed. Totowa (NJ): Humana Press Inc; 2004; 259-286.) Evaluation of novel therapeutic approaches in dogs with spontaneous cancer offers potential benefit to canine patients and a rapid assessment of therapeutic index. Because the tumors arise spontaneously in an immunologically intact host and have greater heterogeneity than passaged cell lines, it is not surprising that responses to standard chemotherapeutic agents in canine malignancies are similar to those of the corresponding tumors in man and that the preclinical results attained may be more predictive of the activity in humans (references; Khanna C, Paoloni M. Translation of new cancer treatments from pet dogs to humans. Nature Rev Cancer. 2008; 8:7-16.; Vail D M, Young K M. Canine lymphoma and lymphoid leukemia. In: Withrow S J, Vail D M, eds. Small Animal Clinical Oncology. 4th Ed. St. Louis (MO): Saunders; 2007. p. 699-733.) Non-Hodgkin's lymphoma in dogs represents a relatively homogenous population with respect to histological type as defined by the REAL/WHO or NCI-Working Formulation schema (i.e., 85% are medium- to high-grade B-cell NHL) with the majority being diffuse large B-cell lymphoma (reference Jacobs R M, Messick J B, Valli V E. Tumors of the hemolymphatic system. In: Meuten D J, editor. Tumors in Domestic Animals. 4th Ed. Ames (IA): Iowa State Press; 2002:119-198).
Compound (21) was administered at a dose of 0.3 mg/kg of body weight by 30 minute IV infusion in Sterile Saline Injection (0.9% sodium chloride for injection) (total volume 2 ml/kg or 100 ml) once every 21 days to a dog that had non-Hodgkin's lymphoma involving multiple lymphnodes. Diagnosis was confirmed by histological evaluation of the tumor. The effect of treatment on the tumor was measured using the Response Evaluation Criteria in Solid Tumors (RECIST) Guideline (Therasse et al 2000). The size of the tumors and response to treatment was evaluated by in these peripherally accessible lymph nodes, by measuring the longest dimension using callipers and evaluating changes in the individual tumor measurement and their sums. […] Confirmation was done by cytological examination of an aspirated biopsy to confirm the absence of tumor cells.

[1] = Day 7 (printed under the Day 1 column)
[2] = Day 14 (printed under the Day 7 column)
[3] = Day 21 (printed under the Day 14 column)
[4] = Day 28 (printed under the Day 21 column)
[5] = Day 42 (printed under the Day 28 column)

Structure (SMILES): CCCOc1nc(N)nc2c1ncn2CCOCP(=O)(N1CCC[C@H]1C(=O)OCC)N1CCC[C@H]1C(=O)OCC [Example 21]
- % change of sum of lymphnodes (Day 1 (printed under the Day 0 column)): −13.0%
- Lymphnode L PopLN longest dimension (Day 1, 0.3 mg/kg IV once every 21 days, Day 0 pre treatment 2.3): 2.1 cm
- Lymphnode R SMLN longest dimension (Day 1, 0.3 mg/kg IV once every 21 days, Day 0 pre treatment 2.9): 3.1 cm
- Lymphnode L SMLN longest dimension (Day 1, 0.3 mg/kg IV once every 21 days, Day 0 pre treatment 3.1): 2.0 cm
- Lymphnode R PSLN longest dimension (Day 1, 0.3 mg/kg IV once every 21 days, Day 0 pre treatment 3.6): 3.6 cm
- Lymphnode L PSLN longest dimension (Day 1, 0.3 mg/kg IV once every 21 days, Day 0 pre treatment 5.0): 3.9 cm
- Sum of lymphnodes (Day 1, 0.3 mg/kg IV once every 21 days): 14.7 cm
- Change of sum of lymphnodes (Day 1 vs Day 0 pre treatment sum 16.9): −2.2 cm
- Response (RECIST) [1]: PR (Partial Response (PR) if at least a 30% decrease in the sum of the LD of target lesions, taking as reference the baseline sum)
- % change of sum of lymphnodes [1]: −66.3%
- Lymphnode L PopLN longest dimension (Day 7, 0.3 mg/kg IV once every 21 days, Day 0 pre treatment 2.3): 1.6 cm
- Lymphnode R SMLN longest dimension (Day 7, 0.3 mg/kg IV once every 21 days, Day 0 pre treatment 2.9): 1.0 cm
- Lymphnode L SMLN longest dimension (Day 7, 0.3 mg/kg IV once every 21 days, Day 0 pre treatment 3.1): 1.1 cm
- Lymphnode R PSLN longest dimension (Day 7, 0.3 mg/kg IV once every 21 days, Day 0 pre treatment 3.6): 1.0 cm
- Lymphnode L PSLN longest dimension (Day 7, 0.3 mg/kg IV once every 21 days, Day 0 pre treatment 5.0): 1.0 cm
- Sum of lymphnodes (Day 7): 5.7 cm
- Change of sum of lymphnodes (Day 7 vs Day 0 pre treatment sum 16.9): −11.2 cm
- Response (RECIST) [2]: PR (Partial Response (PR) if at least a 30% decrease in the sum of the LD of target lesions, taking as reference the baseline sum)
- % change of sum of lymphnodes [2]: −69.2%
- Lymphnode L PopLN longest dimension (Day 14, 0.3 mg/kg IV once every 21 days, Day 0 pre treatment 2.3): 1.0 cm
- Lymphnode R SMLN longest dimension (Day 14, 0.3 mg/kg IV once every 21 days, Day 0 pre treatment 2.9): 1.0 cm
- Lymphnode L SMLN longest dimension (Day 14, 0.3 mg/kg IV once every 21 days, Day 0 pre treatment 3.1): 1.0 cm
- Lymphnode R PSLN longest dimension (Day 14, 0.3 mg/kg IV once every 21 days, Day 0 pre treatment 3.6): 1.0 cm
- Lymphnode L PSLN longest dimension (Day 14, 0.3 mg/kg IV once every 21 days, Day 0 pre treatment 5.0): 1.2 cm
- Sum of lymphnodes (Day 14): 5.2 cm
- Change of sum of lymphnodes (Day 14 vs Day 0 pre treatment sum 16.9): −11.7 cm
- Lymphnode L PopLN longest dimension (Day 21 (Treatment #2), 0.3 mg/kg IV once every 21 days, Day 0 pre treatment 2.3): 1.3 cm
- Lymphnode R SMLN longest dimension (Day 21 (Treatment #2), 0.3 mg/kg IV once every 21 days, Day 0 pre treatment 2.9): 2.0 cm
- Lymphnode L SMLN longest dimension (Day 21 (Treatment #2), 0.3 mg/kg IV once every 21 days, Day 0 pre treatment 3.1): 2.3 cm
- Lymphnode R PSLN longest dimension (Day 21 (Treatment #2), 0.3 mg/kg IV once every 21 days, Day 0 pre treatment 3.6): 2.7 cm
- Lymphnode L PSLN longest dimension (Day 21 (Treatment #2), 0.3 mg/kg IV once every 21 days, Day 0 pre treatment 5.0): 2.8 cm
- Sum of lymphnodes (Day 21 (Treatment #2)): 11.1 cm
- Response (RECIST) [3]: PR (Partial Response (PR) if at least a 30% decrease in the sum of the LD of target lesions, taking as reference the baseline sum)
- % change of sum of lymphnodes [3]: −34.3%
- Change of sum of lymphnodes (Day 21 vs Day 0 pre treatment sum 16.9): −5.8 cm
- Response (RECIST) [4]: PR (Partial Response (PR) if at least a 30% decrease in the sum of the LD of target lesions, taking as reference the baseline sum)
- % change of sum of lymphnodes [4]: −67.5%
- Lymphnode R SMLN longest dimension (Day 28, 0.3 mg/kg IV once every 21 days, Day 0 pre treatment 2.9): 1.0 cm
- Lymphnode L SMLN longest dimension (Day 28, 0.3 mg/kg IV once every 21 days, Day 0 pre treatment 3.1): 1.5 cm
- Lymphnode R PSLN longest dimension (Day 28, 0.3 mg/kg IV once every 21 days, Day 0 pre treatment 3.6): 1.5 cm
- Lymphnode L PSLN longest dimension (Day 28, 0.3 mg/kg IV once every 21 days, Day 0 pre treatment 5.0): 1.5 cm
- Sum of lymphnodes (Day 28): 5.5 cm
- Change of sum of lymphnodes (Day 28 vs Day 0 pre treatment sum 16.9): −11.4 cm
- Lymphnode L PopLN size (Day 42 (Treatment #3), 0.3 mg/kg IV once every 21 days, Day 0 pre treatment 2.3): WNL
- Lymphnode R SMLN size (Day 42 (Treatment #3), 0.3 mg/kg IV once every 21 days, Day 0 pre treatment 2.9): WNL
- Lymphnode L SMLN size (Day 42 (Treatment #3), 0.3 mg/kg IV once every 21 days, Day 0 pre treatment 3.1): WNL**
- Lymphnode R PSLN size (Day 42 (Treatment #3), 0.3 mg/kg IV once every 21 days, Day 0 pre treatment 3.6): WNL
- Lymphnode L PSLN size (Day 42 (Treatment #3), 0.3 mg/kg IV once every 21 days, Day 0 pre treatment 5.0): WNL
- Response (RECIST) [5]: CR (Complete Response (CR) if lymphnodes returned to a size within normal limits)
- % change of sum of lymphnodes [5]: −100%
- Response to treatment (after one treatment, 0.3 mg/kg IV): Partial Response
- reduction in tumor size (starting on Day 7 after the first treatment, continued improvement to day 42): significant reduction in tumor size
- Response to treatment (with continued treatment, 0.3 mg/kg IV once every 21 days): Complete Response with complete elimination of the tumor

From US8163718B2, “Nucleoside analogues containing phosphonate or phosphonamide groups” (Gilead Sciences, Inc., priority 2008, dated 2012)
